Drawing on patent US8299021B2, “Macrocyclic inhibitors of hepatitis C virus replication” (InterMune, Inc., priority 2005, dated 2012), this text covers IC50 for 18 compounds.

In one experiment the target is T1, NS3-NS4 protease (full-length NS3/NS4A-2) (Hepatitis C virus genotype 1a, UniProt P27958).
T1 construct: Recombinant E. coli or Baculovirus full-length NS3 was diluted to 3.33 μM with assay buffer; made in house; host or cells: E. coli or baculovirus (insect cells)
T1 sequence (P27958 1027-1657): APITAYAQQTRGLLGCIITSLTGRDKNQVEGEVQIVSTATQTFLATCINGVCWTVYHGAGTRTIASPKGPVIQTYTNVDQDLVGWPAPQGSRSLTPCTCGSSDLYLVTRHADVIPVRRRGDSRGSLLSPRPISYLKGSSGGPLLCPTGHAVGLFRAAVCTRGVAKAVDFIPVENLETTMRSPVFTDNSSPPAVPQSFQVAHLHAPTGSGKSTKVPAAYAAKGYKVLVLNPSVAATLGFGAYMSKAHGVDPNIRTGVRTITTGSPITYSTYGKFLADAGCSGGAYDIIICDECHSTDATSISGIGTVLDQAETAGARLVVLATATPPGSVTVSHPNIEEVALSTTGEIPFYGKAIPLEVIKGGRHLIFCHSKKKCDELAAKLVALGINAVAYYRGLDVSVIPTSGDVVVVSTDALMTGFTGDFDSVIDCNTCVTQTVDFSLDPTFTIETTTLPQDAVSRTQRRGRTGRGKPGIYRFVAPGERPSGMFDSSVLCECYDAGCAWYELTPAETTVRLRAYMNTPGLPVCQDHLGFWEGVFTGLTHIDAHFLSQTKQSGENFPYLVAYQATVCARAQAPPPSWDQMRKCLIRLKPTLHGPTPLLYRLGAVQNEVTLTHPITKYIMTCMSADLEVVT
The experiment is described as follows: NS3-NS4 protease assay / NS3 inhibition assay (RETS1 substrate, fluorescence kinetic read). The experiment is classed as biochemical. The note with it: Table 22; read-out: NS3-NS4 IC50. As to the method:
NS3 complex formation with NS4A-2.
The appropriate amount of NS4A-2 to 8.3 mM in assay buffer was added to equal the volume of NS3 in step 2.1.1 (conversion factor—3.8 mg/272 μL assay buffer). The material was transferred to an eppendorf tube and place in water bath in 4° C. refrigerator.
After equilibration to 4° C., equal volumes of NS3 and NS4A-2 solutions were combined in an eppendorf tube, mix gently with a manual pipettor, and incubate mixture for 15 minutes in the 4° C. water bath.
After 15 minutes at 4° C., the NS3/NS4A-2 eppendorf tube was removed and place it in a room temperature water bath for 10 minutes. NS3/NS4A-2 was alliquoted at appropriate volumes and store at −80° C. (E. coli NS3 run at 2 nM in assay, aliquot at 25 μL. BV NS3 run at 3 nM in assay, aliquot at 30 μL).
Sample compounds were dissolved to 10 mM in DMSO then diluted to 2.5 mM (1:4) in DMSO.
The E. coli. […] Using the manual multichannel pipettor, careful not to introduce bubbles into the plate, add 50 μL assay buffer to wells A01-H01 of a black Costar 96-well polypropylene storage plate.
Using the manual multichannel pipettor, careful not to introduce bubbles into the plate, add 50 μL of diluted NS3/NS4A-2 from step 2.2.6 to wells A02-H12 of plate in step 2.2.7. Using the manual multichannel pipettor, careful not to introduce bubbles into the plate, transfer 25 μL of the wells in drug dilution plate in step 2.2.5 to corresponding wells in assay plate in step 2.2.8. Change tips on multichannel pipettor for each row of compounds transferred. Using the manual multichannel pipettor, careful not to introduce bubbles into the plate, mix the wells from the assay plate in step 2.2.9 by aspirating and dispensing 35 μL of the 75 μL in each well five times. Change tips on multichannel pipettor for each row of wells mixed. Cover plate with a polystyrene plate lid and pre-incubate the plate from step 2.2.10 containing NS3 protease and sample compounds 10 minutes at room temperature. While plate from step 2.2.11 is pre-incubating, dilute RETS1 substrate in a 15 mL polypropylene centrifuge tube.
After the plate in step is done pre-incubating, and using the manual multichannel, add 25 μL of substrate to all wells on the plate. Quickly mix the plate as in step 2.2.10, mixing 65 μL of the 100 μL in the wells.
Read the plate in kinetic mode on the Molecular Devices SpectraMax
IC50s are determined using a four parameter curve fit equation, and converted to Ki's using the following Km's:
where Ki=IC50/(1+[S]/Km))
On to `CC(C)(C)OC(=O)N[C@H]1CCCCC/C=C\[C@@H]2C[C@@]2(C(=O)NCc2ccccc2)NC(=O)[C@@H]2CCCN2C1=O` [Compound 2307], for which the 50% inhibitory concentration (IC50) (as a rule, the concentration at which inhibition is half-maximal) is under 1 µM.

On to `CC(C)(C)OC(=O)N[C@H]1CCCCC/C=C\[C@@H]2C[C@@]2(C(=O)Nc2ccccc2Cl)NC(=O)[C@@H]2CCCN2C1=O` [Compound 2309], for which the IC50 was under 1 µM.

As to `CC(C)(C)OC(=O)N[C@H]1CCCCC/C=C\[C@@H]2C[C@@]2(C(=O)NCc2cccc(C(=O)O)c2)NC(=O)[C@@H]2CCCN2C1=O` [Compound 2310], the IC50 was under 1 µM.

Regarding `CC(C)(C)OC(=O)N[C@H]1CCCCC/C=C\[C@@H]2C[C@@]2(C(=O)NCc2ccc(Cl)cc2)NC(=O)[C@@H]2CCCN2C1=O` [Compound 2308], the IC50 is under 1 µM.

The same experiment, now with this note: Table 25; read-out: NS3-NS4 IC50.
Consider `Cc1ccc([S@+]([O-])NC(=O)[C@@]23C[C@H]2/C=C\CCCCC[C@H](NC(=O)OC(C)(C)C)C(=O)N2C[C@H](OC(=O)N4Cc5ccccc5C4)C[C@H]2C(=O)N3)cc1` [Compound 2602], for which the IC50 is under 10 µM.

`Cc1ccc([S+]([O-])NC(=O)C23CC2C=CCCCCCC(NC(=O)OC(C)(C)C)C(=O)N2CC(OC(=O)N4Cc5ccccc5C4)CC2C(=O)N3)cc1` (stereo not drawn) [Compound 2603]: the concentration for half-maximal inhibition (IC50) is under 10 µM.

The experiment is the same for the next values; noted with them: read-out: NS3-NS4 IC50.
For `CC(C)(C)OC(=O)N[C@H]1CCCCC/C=C\[C@@H]2C[C@@]2(C(=O)NS(=O)(=O)NC2CC2c2ccccc2)NC(=O)[C@@H]2CCCN2C1=O` (stereo partly drawn) [Compound 2224], the IC50 is under 10 µM.

On to `CC(C)(C)OC(=O)NC1CCCCCC=CC2CC2(C(=O)NS(=O)(=O)C(F)(F)F)NC(=O)C2CCCN2C1=O` (stereo not drawn) [Compound 2107], for which the IC50 was under 1 µM.

In the case of `CC(C)(C)OC(=O)N[C@H]1CCCCC/C=C\[C@@H]2C[C@@]2(C(=O)NS(=O)(=O)c2ccc([N+](=O)[O-])cc2)NC(=O)[C@@H]2CCCN2C1=O` [Compound 2102], the IC50 is under 10 µM.

As for `CCOC(=O)[C@@]12C[C@H]1/C=C\CCCCC[C@H](NC(=O)OC(C)(C)C)C(=O)N1Cc3ccc(Oc4cccc(Cl)c4)cc3CC1C(=O)N2` (stereo partly drawn) [Compound 2006], the IC50 is under 1 µM.

With `CCc1ccc(NS(=O)(=O)NC(=O)[C@@]23C[C@H]2/C=C\CCCCC[C@H](NC(=O)OC(C)(C)C)C(=O)N2CCC[C@H]2C(=O)N3)cc1` [Compound 2242], the IC50 is under 1 µM.

As to `CC(C)(C)OC(=O)NC1CCCCCC=CC2CC2(C(=O)NS(=O)(=O)c2cc(Cl)cc(Cl)c2)NC(=O)C2CCCN2C1=O` (stereo not drawn) [Compound 2108], the IC50 is under 10 µM.

For the compound `CO[C@@H]1C[C@H]2C(=O)N[C@]3(C(=O)NS(=O)(=O)C4CC4)C[C@H]3/C=C\CCCCC[C@H](NC(=O)OC(C)(C)C)C(=O)N2C1` [Compound 2146, 1S,4R,6S,14S,18R)-tert-Butyl 4-cyclopropylsulfonylaminocarbonyl-2,15-dioxo-3,16-diaza-18-methoxy-tricyclo[14.3.0.0^4,6]nonadec-7-ene-14-yl carbamate], the half-maximal inhibitory concentration (IC50) is over 10 µM.

With “Cyclopentyl (1aR,9S,19aR)-15-(3-chlorophenoxy)-10,18-dioxo-19a-(phenylsulfonylcarbamoyl)-1a,2,3,4,5,6,7,8,9,10,12,17,17a,18,19,19a-hexadecahydro-1H-2,5-diaza-bicyclo[13.1.0]hexadec-1(15)-eno[5,4-b]isoquinolin-9-ylcarbamate [Compound 2010]”, the IC50 was under 10 µM.

`CC(C)(C)OC(=O)N[C@H]1CCCCC/C=C\[C@@H]2C[C@@]2(C(=O)NS(=O)(=O)c2cnccc2Cl)NC(=O)[C@@H]2CCCN2C1=O` [Compound 2128]: the IC50 was under 10 µM.

Regarding `CCCS(=O)(=O)NC(=O)[C@@]12C[C@H]1/C=C\CCCCC[C@H](NC(=O)OC(C)(C)C)C(=O)N1CCC[C@H]1C(=O)N2` [Compound 2105], the IC50 was under 1 µM.

As to `CC(C)(C)OC(=O)N[C@H]1CCCCC/C=C\[C@@H]2C[C@@]2(C(=O)NS(=O)(=O)c2cccc3ccccc23)NC(=O)[C@@H]2CCCN2C1=O` [Compound 2148], the half-maximal inhibitory concentration (IC50) is under 10 µM.

For `CC(C)(C)OC(=O)N[C@H]1CCCCC/C=C\[C@@H]2C[C@@]2(C(=O)NS(=O)(=O)NC2CCCC2)NC(=O)[C@@H]2CCCN2C1=O` [Compound 2215], the half-maximal inhibitory concentration (IC50) is under 1 µM.
